Experiments:
[1] = system: HHFSC (Human Hair Follicle Stem Cells); test: Cellular in vitro stem cell protection assay (UVB-induced apoptosis, caspase 3/7); format: cell-based; conditions: light or radiation study, 25 mJ/cm^2 UVB, read-out: Inhibition of UV induced apoptosis [%]
Procedure: HHFSC (Human Hair Follicle Stem Cells) isolated from hair follicle bulge (Celprogen) were cultivated in culture ware pre-coated with Human Hair Follicle Stem Cell Extra-cellular Matrix (Celprogen). The cells were incubated 2 h prior to and 16 h after UVB irradiation with test compounds. Cells were irradiated with 25 mJ/cm^2 UVB in the presence of buffer solution. Apoptosis induction was evaluated by caspase 3/7 protein expression (Caspase-Glo 3/7, Promega) and quantified by chemiluminescence measurement.
The inhibition of apoptosis induction in the presence of test substances was calculated according to the following equation: […]
The abbreviations have the following meanings: • RLU test substance: • RLU of the wells with test substance and with UVB irradiation • RLU control: • RLU of the wells without test substance, but with UVB irradiation • RLU control without UVB: • RLU of the wells without test substance and without UVB irradiation

[2] = system: Primary human dermal fibroblasts; test: Cellular in vitro DCF assay (intracellular ROS); format: cell-based; parameters: unit of the concentration uncertain
Procedure: Primary human dermal fibroblasts (Lonza) are disseminated in a 96-well microtiter plate in a concentration of 1×10^4 cells/well (DMEM, 10% FKS). After cultivation in fully enriched medium (DMEM, 10% FCS) for 24 h at 37° C. and 5% CO2, the serum content was reduced to 0.1% for further 24 h to synchronize the cell cycle. Confluence was supposed to be around 70% at the time, the incubation with the test substances began. Various concentrations of the test substances, two backgrounds (untreated cells), control (possible with solvent) and Trolox as internal standard (1000 μM) were applied to the cells in DMEM and incubated for further 18-20 h. […], 100 μl H2DCF-DA-solution (2,7-Dichlorfluorescein, 10 μM) incl. DAPI (1:1000) was added to all samples (excluded the background-control) and incubated for one hour to de-esterify the H2DCF-DA by cellular esterases. The resulting H2DCF was thereby trapped inside the cell. After the incubation, the cells were washed and the prooxidant challenge was set (1 mM, 1 h). The resulting fluorescence was read at Ex 504 nm; Em 524 nm. An increased level of ROS (reactive oxygen species) led to an increased amount of fluorescence.
Results are mean values from 2 independent experiments with quadruple determinations each.
The inhibition of the oxidation in the presence of test substances was calculated according to the following equation: […]
The abbreviations have the following meanings: • RFU DAPI: Relative fluorescence units (Ex 380/20, Em 440/40) of the wells with test substance, DAPI and DCF treatment, with cells • RFU DCF: Relative fluorescence units (Ex 485/20, Em 528/20) of the wells with test substance, DAPI and DCF treatment, with cells • RFU control: Relative fluorescence units of the wells without test substance, DAPI and DCF treatment, with cells (The control was calculated like the other samples.) • RFU BLANK: Relative fluorescence units of the wells without test substance, without DAPI and DCF treatment but with cells

Heme Oxygenase-1 = test: Cellular in vitro heme oxygenase-1 expression assay on NHDF (Western blot); format: cell-based, human; conditions: 24 h, 0.0134% b.w.
Procedure: NHDF (normal human dermal fibroblasts) cells were disseminated in a 6-well plate in a concentration of 2×10^5 cells/well (DMEM, 10% FCS). After cultivation in fully enriched medium (DMEM, 10% FCS) for 72 h at 37° C. and 5% CO2, the serum content was reduced to 0.1% to synchronize the cell cycle. Various concentrations of the test substances, the negative control (untreated cells) and tert. butylhydrochinon as positive control, are added and incubated for a further 24 h. The maximum concentration of the test substances used corresponds to 0.2 times the value of the IC20 of the cytotoxicity assay. After cell lysis, the protein amount was determined using the Biorad BCA assay. All samples were adjusted to the same protein level before application on a fast Criterion Gel (Biorad) to perform electrophoresis for 20 minutes at 300 V. Thereafter the proteins were transferred to a PVDF membrane on a semi-dry blotter (30 minutes, 25 V). The blotted membrane is blocked for 4 hours in a 5% milk powder solution in TBST at 4° C. After washing, the membrane is incubated with the first antibody solution HO-1 from abcam (1:500 in 1% milk powder in TBST) over night. […] The resulting band pattern is detected with a chemiluminescence sensitive camera system (Vil-ber Loumat). The quantification was done by densitometry, using the Image J freeware software.

Hyaluronic acid = test: Cellular in vitro hyaluronic acid assay on NHDF (competitive ELISA); format: cell-based, human; conditions: 72 h
Procedure: NHDF (normal human dermal fibroblasts) cells were disseminated in a 96-well microtiter plate in a concentration of 2×10^4 cells/well (DMEM, 10% FCS). After cultivation in fully enriched medium (DMEM, 10% FCS) for 72 h at 37° C. and 5% CO2, the serum content was reduced to 0.1% to synchronize the cell cycle and incubated for further 24 h. Various concentrations of the test substances and TGF-beta1 as internal standard are added and incubated for 72 h. The maximum concentration of the test substances used corresponds to 0.2 times the value of the IC20 of the cytotoxicity assay. Hyaluronic acid is quantified by a competitive ELISA (TECOmedical TE1017).
The percent bound for each standard and unknown substance is calculated using the following equation: […]
A standard curve is generated by plotting the aborptions of the given concentrations in a linear proportion. The gradient of the line is determined and the value of the substances calculated as follows: • 1. value=1/RFU • 2. value=((1. value)−b)/m) • Compound of Hyaluronic acid [ng/ml]=2. value*dilution

[3] = system: B16V mouse melanoma cells; test: Depigmentation effect on melanoma cell cultures; format: cell-based; conditions: 0.6 mM tyrosine and 10 nM MSH, 96 h, read-out: IC50 (Inhibition of pigmentation)
Procedure: B16V mouse melanoma cells are disseminated in a 96-well micro-titre plate in a concentration of 7.5×10^3 cells/well. After cultivation for 24 h at 37° C. and 5% CO2 in RPMI medium, enriched with 10% foetal calf serum, various concentrations of the test substances and 0.6 mM tyrosine and 10 nM-MSH (-melanocyte stimulating hormone) are added and incubated for a further 96 h. The maximum concentration of the test substances used corresponds to 0.1 times the value of the IC20 value of the cytotoxicity assay. Only tyrosine and -MSH are added to the controls. After incubation, sodium hydroxide solution (final concentrations: 1 M) is added to the culture medium and the absorption (A) is measured after 3 h at 400 nm.
The inhibition of pigmentation in the presence of the test compounds was calculated using the following equation: Inhibition of pigmentation (%)=100−[(Atest compound/Acontrol)×100] wherein • Atest compound=absorption of the wells with test substance and with cells • Acontrol=absorption of the wells without test substance, but with cells
From the inhibition of pigmentation (%) in a series of dilutions of test compounds, the IC50 for each test compound is calculated. This is the concentration of a test compound at which pigmentation is inhibited by 50%.

CC1CC(OC(=O)CCC(=O)N(C)C)CC(C)(C)C1 (stereo not shown) [S7a/S7b**]
inhibition at 20 µM ([1]; 0.02 mM): 5%
inhibition at 200 µM ([1]; 0.20 mM): 32%
Intracellular ROS reduction [%] ([2]; concentration 1 (unit uncertain)): −2%
Intracellular ROS reduction [%] ([2]; concentration 10 (unit uncertain)): 11%
Intracellular ROS reduction [%] ([2]; concentration 50 (unit uncertain)): 16.3%
Intracellular ROS reduction [%] ([2]; concentration 100 (unit uncertain)): 19.5%
Up-regulation (HO1-Amount relative to control) (Heme Oxygenase-1): 14.5-fold
Stimulation (Hyaluronic acid stimulation relative to control) (Hyaluronic acid; 0.00012 % b.w.): 34.4%
Stimulation (Hyaluronic acid stimulation relative to control) (Hyaluronic acid; 0.00120 % b.w.): 67.3%
IC50 [3]: 18.4 µM
